From US20110046056A1, “APOA-1 PEPTIDE MIMETICS” (priority 2007, published 2011)
Like-named read-outs stand apart in the source and are kept apart here. *1 amine or outer side, *2 acyl side, *3 side chain or, on linkers, in order; H or OH if unused. Where a SMILES comes first, the peptide text is derived from it. Bridges are numbered along the chain shown (N, C = ends). Where no end group is shown, it is not given here. [ ]: non-standard residue; d: D form. S6H = (2S)-2-aminooct-7-enoic acid, C=CCCCC[C@H](N[*:1])C(=O)[*:2]; dNle(6-ylidene) = O=C([C@@H](CCCC=[*:3])N[*:1])[*:2]; Gly(oct-7-en-1-yl) = C=CCCCCCC[C@H](N)C(=O)O; dGly(6-heptenyl) = C=CCCCCC[C@@H](N)C(=O)O; Ala(5-hexenyl) = C=CCCCCC[C@H](N)C(=O)O; dNle(6-vinyl) = C=CCCCC[C@@H](N)C(=O)O; Gla = N[C@@H](CC(C(=O)O)C(=O)O)C(=O)O; R5H = not defined here; Aib = CC(C)(N)C(=O)O

Target: T1, ABCA1 cholesterol transporter protein (Mus musculus, UniProt P41233)
T1 construct: endogenous in cells
T1 sequence (P41233 whole entry): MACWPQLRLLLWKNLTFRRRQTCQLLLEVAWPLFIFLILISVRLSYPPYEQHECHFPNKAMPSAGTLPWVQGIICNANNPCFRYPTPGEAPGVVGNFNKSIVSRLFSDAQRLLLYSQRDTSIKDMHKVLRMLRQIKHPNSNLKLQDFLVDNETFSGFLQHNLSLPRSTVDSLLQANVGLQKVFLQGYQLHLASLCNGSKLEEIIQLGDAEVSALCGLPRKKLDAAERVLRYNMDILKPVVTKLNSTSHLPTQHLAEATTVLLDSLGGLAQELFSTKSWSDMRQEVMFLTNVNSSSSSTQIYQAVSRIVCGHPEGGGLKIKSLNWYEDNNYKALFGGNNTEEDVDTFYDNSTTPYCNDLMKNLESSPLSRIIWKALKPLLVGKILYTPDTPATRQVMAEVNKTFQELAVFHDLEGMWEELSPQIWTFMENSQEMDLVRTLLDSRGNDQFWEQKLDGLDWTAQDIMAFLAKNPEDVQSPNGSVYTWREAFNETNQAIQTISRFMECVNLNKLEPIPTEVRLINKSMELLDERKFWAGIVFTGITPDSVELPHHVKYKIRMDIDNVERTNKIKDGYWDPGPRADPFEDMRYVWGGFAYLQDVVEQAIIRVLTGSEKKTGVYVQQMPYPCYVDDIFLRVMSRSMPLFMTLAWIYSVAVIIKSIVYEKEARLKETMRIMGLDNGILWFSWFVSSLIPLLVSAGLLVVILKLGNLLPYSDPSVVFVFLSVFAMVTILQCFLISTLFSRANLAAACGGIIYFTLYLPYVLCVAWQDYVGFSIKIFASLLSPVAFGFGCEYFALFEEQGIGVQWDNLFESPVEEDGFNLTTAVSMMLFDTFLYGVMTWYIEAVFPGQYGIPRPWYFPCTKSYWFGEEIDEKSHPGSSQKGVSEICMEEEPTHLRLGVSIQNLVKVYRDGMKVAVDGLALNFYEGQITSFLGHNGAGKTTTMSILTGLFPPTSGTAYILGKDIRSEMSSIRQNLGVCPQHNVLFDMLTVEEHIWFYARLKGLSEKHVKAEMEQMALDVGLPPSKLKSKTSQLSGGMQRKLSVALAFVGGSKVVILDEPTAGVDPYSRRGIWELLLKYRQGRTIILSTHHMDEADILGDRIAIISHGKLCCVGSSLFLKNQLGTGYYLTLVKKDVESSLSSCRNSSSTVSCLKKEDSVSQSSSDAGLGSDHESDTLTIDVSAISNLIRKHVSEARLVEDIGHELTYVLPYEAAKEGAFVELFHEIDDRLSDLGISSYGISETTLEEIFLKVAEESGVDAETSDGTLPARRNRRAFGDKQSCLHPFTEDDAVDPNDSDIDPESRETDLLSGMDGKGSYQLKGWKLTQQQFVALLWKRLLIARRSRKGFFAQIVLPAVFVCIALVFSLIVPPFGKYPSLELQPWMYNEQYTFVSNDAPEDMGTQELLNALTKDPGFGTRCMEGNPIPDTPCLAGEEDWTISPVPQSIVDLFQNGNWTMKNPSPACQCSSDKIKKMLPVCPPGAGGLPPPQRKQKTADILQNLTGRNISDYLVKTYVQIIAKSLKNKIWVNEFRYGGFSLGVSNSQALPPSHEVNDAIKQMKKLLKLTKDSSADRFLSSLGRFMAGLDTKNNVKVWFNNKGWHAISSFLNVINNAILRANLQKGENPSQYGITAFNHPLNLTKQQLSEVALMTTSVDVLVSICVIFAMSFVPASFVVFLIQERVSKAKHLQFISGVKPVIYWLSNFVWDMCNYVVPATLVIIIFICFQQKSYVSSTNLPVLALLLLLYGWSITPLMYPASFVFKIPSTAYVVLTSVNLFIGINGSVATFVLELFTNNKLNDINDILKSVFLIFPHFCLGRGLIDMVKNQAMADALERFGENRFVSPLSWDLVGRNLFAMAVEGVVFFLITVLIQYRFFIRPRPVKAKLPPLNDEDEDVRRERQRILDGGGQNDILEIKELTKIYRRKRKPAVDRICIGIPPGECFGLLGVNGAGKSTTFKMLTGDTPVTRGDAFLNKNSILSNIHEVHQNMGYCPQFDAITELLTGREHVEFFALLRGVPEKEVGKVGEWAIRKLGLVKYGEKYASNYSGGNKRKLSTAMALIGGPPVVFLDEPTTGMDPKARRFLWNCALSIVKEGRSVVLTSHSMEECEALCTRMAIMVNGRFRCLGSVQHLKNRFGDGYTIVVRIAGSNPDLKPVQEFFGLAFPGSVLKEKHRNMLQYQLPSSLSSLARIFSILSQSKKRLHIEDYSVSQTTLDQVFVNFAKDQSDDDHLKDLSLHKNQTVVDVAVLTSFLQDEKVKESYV
Test: ABCA1-dependent cholesterol efflux from RAW mouse macrophage cells (in vitro RCT assay)
Type: cell-based
Text: Peptides of the present invention were designed based on amphipathic properties and their abilities to solubilize phospholipids and promote cholesterol efflux. The most direct functional measurement of efficacy for the ApoA-1 peptide mimetic is its capacity to improve the efflux of cholesterol from the cell. The RAW and J774 cell lines are reliable mouse macrophage cell lines frequently used in the art for this purpose. […] The RAW cell line is preferred and recited in the description below.
In the present assay, the RAW cells are plated at 1.5×10^5 cells/200 μl/well/48-well plate in DMEM complete medium (with 10% FBS from INVITROGEN and 1% penicillin-streptomycin-glutamine from GIBCO) and ^3H-cholesterol at 5 μCi/ml. After 24 hours incubation in a moist 37° C. atmosphere with 5% CO2, the spent medium is removed, the cells are washed once with serum-free DMEM (0.1% fatty acid free bovine serum albumin replaces the FBS), and fresh serum-free medium (200 μl) is added to each well. After overnight incubation in the serum-free medium to allow the cellular cholesterol pools to equilibrate, the spent medium is removed, and fresh serum-free medium is added with/without CPT-cAMP (150 μM final). Eight-point serial titrations of the peptide/s being tested are added at this time (duplicate titrations in plain medium without cAMP and duplicate titrations in medium containing cAMP).
After 24 hours incubation in the various conditions, the medium is harvested from each well and 50 μl aliquots are counted. The cells are then lysed by adding 500 μl of HEPES/Triton lysis buffer to each well. The lysis is facilitated by freezing and thawing once. After thawing, the lysates are mixed well and 50 μl aliquots are counted.
The percent efflux of each peptide in each medium condition (±cAMP) is calculated by dividing the total counts in the medium by the sum of the total counts in the medium and lysate. The percent efflux seen with plain medium is subtracted from the percent efflux seen with the cAMP-stimulated efflux to yield the reported ABCA1-stimulated values. EC50 values are determined using PRISM software (Table 2).

[1] = read-out: EC50 in the cholesterol efflux assay (RCT in vitro assay)
[2] = read-out: ABCA1-DEPENDENT CHOLESTEROL EFFLUX EC50

## C=CCCCCC[C@H](NC(=O)[C@H](CCC(=O)O)NC(=O)[C@H](CC(N)=O)NC(=O)[C@H](CC(C)C)NC(=O)[C@H](CCCCN)NC(=O)[C@H](CCC(=O)O)NC(=O)[C@H](CCCN=C(N)N)NC(=O)[C@@H](CCCCC=C)NC(=O)[C@H](CCC(=O)O)NC(=O)[C@H](CC(=O)O)NC(=O)[C@H](CC(C)C)NC(=O)[C@@H](NC(=O)[C@@H]1CCCN1C(C)=O)C(C)C)C(=O)N[C@@H](CC(C)C)C(=O)N[C@@H](CCC(=O)O)C(=O)N[C@@H](C)C(=O)N[C@@H](CC(C)C)C(=O)N[C@@H](CCCCN)C(=O)N[C@@H](CCC(N)=O)C(=O)N[C@@H](CCCCN)C(=O)N[C@@H](CC(C)C)C(=O)N[C@@H](CCCCN)C(N)=O [SEQ ID NO 13, PVLDER6HREKLNES7HLEALKQKLK] (Ac-PVLDE[dNle(6-vinyl)]REKLNE[Ala(5-hexenyl)]LEALKQKLK-NH2)
[1]
  EC50: 400 nM

## 11 (Ac-PVLDEFREKLNE[R5H]LEA[R5H]KQKLK; staple 13-17; reading uncertain) [compound 11]
AT 30 µM / @ 30
  ABCA1-DEPENDENT CHOLESTEROL EFFLUX, % at one concentration: <2% AT 30 UM

## C=CCCCCC[C@H](NC(=O)[C@H](CCC(=O)O)NC(=O)[C@H](CC(N)=O)NC(=O)[C@H](CC(C)C)NC(=O)[C@H](CCCCN)NC(=O)[C@H](CCC(=O)O)NC(=O)[C@H](CCCNC(=N)N)NC(=O)[C@H](Cc1ccccc1)NC(=O)[C@H](CCC(=O)O)NC(=O)[C@H](CC(=O)O)NC(=O)[C@H](CC(C)C)NC(=O)[C@@H](NC(=O)[C@@H]1CCCN1C(C)=O)C(C)C)C(=O)N[C@@H](CC(C)C)C(=O)N[C@@H](CC(C(=O)O)C(=O)O)C(=O)N[C@@H](C)C(=O)N[C@@H](CC(C)C)C(=O)N[C@@H](CCCCN)C(=O)N[C@@H](CCC(N)=O)C(=O)N[C@@H](CCCCN)C(=O)N[C@@H](CC(C)C)C(=O)N[C@@H](CCCCN)C(N)=O [SEQ ID NO 47, PVLDEFREKLNES7HL-GLA-ALKQKLK] (Ac-PVLDEFREKLNE[Ala(5-hexenyl)]L[Gla]ALKQKLK-NH2; C-terminus assumed)
[1]
  EC50: 700 nM

## PR7HLDEFREKLNEELEALKQKLK (Ac-P[dGly(6-heptenyl)]LDEFREKLNEELEALKQKLK; not fully specified (C-terminus)) [SEQ ID NO 20]
  activity in the cholesterol efflux / in vitro RCT assay, in words: only slightly active

## C=CCCCCC[C@H](NC(=O)[C@H](CCC(=O)O)NC(=O)[C@H](CC(N)=O)NC(=O)[C@H](CC(C)C)NC(=O)[C@H](CCCCN)NC(=O)[C@H](CCC(=O)O)NC(=O)[C@H](CCCN=C(N)N)NC(=O)[C@H](Cc1ccccc1)NC(=O)[C@H](CCC(=O)O)NC(=O)[C@H](CC(=O)O)NC(=O)[C@H](CC(C)C)NC(=O)[C@H](CCCCCC=C)NC(=O)[C@@H]1CCCN1C(C)=O)C(=O)N[C@@H](CC(C)C)C(=O)N[C@@H](CCC(=O)O)C(=O)N[C@@H](C)C(=O)N[C@@H](CC(C)C)C(=O)N[C@@H](CCCCN)C(=O)N[C@@H](CCC(N)=O)C(=O)N[C@@H](CCCCN)C(=O)N[C@@H](CC(C)C)C(=O)N[C@@H](CCCCN)C(N)=O [SEQ ID NO 42, PS7HLDEFREKLNES7HLEALKQKLK] (Ac-P[Ala(5-hexenyl)]LDEFREKLNE[Ala(5-hexenyl)]LEALKQKLK-NH2)
[1]
  EC50: 300 nM

## PS6HLDEFREKLNEELEALKQKLK (Ac-P[S6H]LDEFREKLNEELEALKQKLK; not fully specified (C-terminus)) [SEQ ID NO 23]
  activity in the cholesterol efflux / in vitro RCT assay, in words: only slightly active

## C=CCCCCCC[C@H](NC(=O)[C@H](CCC(=O)O)NC(=O)[C@H](CC(N)=O)NC(=O)[C@H](CC(C)C)NC(=O)[C@H](CCCCN)NC(=O)[C@H](CCC(=O)O)NC(=O)[C@H](CCCN=C(N)N)NC(=O)[C@H](Cc1ccccc1)NC(=O)[C@H](CCC(=O)O)NC(=O)[C@H](CC(=O)O)NC(=O)[C@H](CC(C)C)NC(=O)[C@@H](NC(=O)[C@@H]1CCCN1C(C)=O)C(C)C)C(=O)N[C@@H](CC(C)C)C(=O)N[C@@H](CCC(=O)O)C(=O)N[C@@H](C)C(=O)N[C@@H](CC(C)C)C(=O)N[C@@H](CCCCN)C(=O)N[C@@H](CCC(N)=O)C(=O)N[C@@H](CCCCN)C(=O)N[C@@H](CC(C)C)C(=O)N[C@@H](CCCCN)C(N)=O [SEQ ID NO 32, PVLDEFREKLNES8HLEALKQKLK] (Ac-PVLDEFREKLNE[Gly(oct-7-en-1-yl)]LEALKQKLK-NH2)
[1]
  EC50: 600 nM

## CCCCCCCCCCCCC(NC(=O)[C@H](CCC(=O)O)NC(=O)[C@H](CC(=O)O)NC(=O)[C@H](CC(C)C)NC(=O)[C@@H](NC(=O)[C@@H]1CCCN1C(C)=O)C(C)C)C(=O)N[C@@H](CCCNC(=N)N)C(=O)N[C@@H](CCC(=O)O)C(=O)N[C@@H](CCCCN)C(=O)N[C@@H](CC(C)C)C(=O)N[C@@H](CC(N)=O)C(=O)N[C@@H](CCC(=O)O)C(=O)N[C@@H](CCC(=O)O)C(=O)N[C@@H](CC(C)C)C(=O)N[C@@H](CCC(=O)O)C(=O)N[C@@H](C)C(=O)N[C@@H](CC(C)C)C(=O)N[C@@H](CCCCN)C(=O)N[C@@H](CCC(N)=O)C(=O)N[C@@H](CCCCN)C(=O)N[C@@H](CC(C)C)C(=O)N[C@@H](CCCCN)C(N)=O (single isomer, unassigned) [SEQ ID NO 37, PVLDE-(RS)12H3-REKLNEELEALKQKLK]
[1]
  EC50: 100 to 400 nM

## CC(=O)N1CCC[C@H]1C(=O)N[C@H](C(=O)N[C@@H](CC(C)C)C(=O)N[C@@H](CC(=O)O)C(=O)N[C@@H](CCC(=O)O)C(=O)N[C@@H](Cc1ccccc1)C(=O)N[C@@H](CCCNC(=N)N)C(=O)N[C@@H](CCC(=O)O)C(=O)N[C@@H]1CCCC=CCCC[C@H](C(=O)N[C@@H](CC(C)C)C(=O)N[C@@H](CCC(=O)O)C(=O)N[C@@H](C)C(=O)N[C@@H](CC(C)C)C(=O)N[C@@H](CCCCN)C(=O)N[C@@H](CCC(N)=O)C(=O)N[C@@H](CCCCN)C(=O)N[C@@H](CC(C)C)C(=O)N[C@@H](CCCCN)C(N)=O)NC(=O)[C@H](CCC(=O)O)NC(=O)[C@H](CC(N)=O)NC(=O)[C@H](CC(C)C)NC1=O)C(C)C [compound 12] (Ac-PVLDEFRE[dNle(6-ylidene)]LNE[dNle(6-ylidene)]LEALKQKLK-NH2; staple 9-13; C-terminus assumed)
[2]
  EC50: 10000 nM

## 6 (Ac-PVLDEFREKLNE[Aib]LEALKQKLK; not fully specified (C-terminus)) [compound 6]
AT 100 µM / @ 100
  ABCA1-DEPENDENT CHOLESTEROL EFFLUX, % at one concentration: 6% AT 100 UM

## Ac-PVLDEFREKLNE[Ala(5-hexenyl)]LEALKQKLKPVLDEFREKLNE[Ala(5-hexenyl)]LEALKQKLK-NH2 (C-terminus assumed) [SEQ ID NO 63]
[1]
  EC50: 41000 nM

## C=CCCCCC[C@H](NC(=O)[C@H](CCC(=O)O)NC(=O)[C@H](CC(=O)O)NC(=O)[C@H](CC(C)C)NC(=O)[C@@H](NC(=O)[C@@H]1CCCN1C(C)=O)C(C)C)C(=O)N[C@@H](CCCNC(=N)N)C(=O)N[C@@H](CCC(=O)O)C(=O)N[C@@H](CCCCN)C(=O)N[C@@H](CC(C)C)C(=O)N[C@@H](CC(N)=O)C(=O)N[C@@H](CCC(=O)O)C(=O)N[C@H](CCCCC=C)C(=O)N[C@@H](CC(C)C)C(=O)N[C@@H](CCC(=O)O)C(=O)N[C@@H](C)C(=O)N[C@@H](CC(C)C)C(=O)N[C@@H](CCCCN)C(=O)N[C@@H](CCC(N)=O)C(=O)N[C@@H](CCCCN)C(=O)N[C@@H](CC(C)C)C(=O)N[C@@H](CCCCN)C(N)=O [compound 10] (Ac-PVLDE[Ala(5-hexenyl)]REKLNE[dNle(6-vinyl)]LEALKQKLK-NH2; C-terminus assumed)
[2]
  EC50: 1300 nM

## 7 (Ac-PVLDEFREKLNE[Aib]LE[Aib]LKQKLK; not fully specified (C-terminus)) [compound 7]
AT 150 µM
  ABCA1-DEPENDENT CHOLESTEROL EFFLUX, % at one concentration: 5% AT 150 UM

## C=CCCCCC[C@H](NC(=O)[C@H](CCC(N)=O)NC(=O)[C@H](CCCCN)NC(=O)[C@H](CC(C)C)NC(=O)[C@H](C)NC(=O)[C@H](CCC(=O)O)NC(=O)[C@H](CC(C)C)NC(=O)[C@H](CCCCCC=C)NC(=O)[C@H](CCC(=O)O)NC(=O)[C@H](CC(N)=O)NC(=O)[C@H](CC(C)C)NC(=O)[C@H](CCCCN)NC(=O)[C@H](CCC(=O)O)NC(=O)[C@H](CCCN=C(N)N)NC(=O)[C@H](Cc1ccccc1)NC(=O)[C@H](CCC(=O)O)NC(=O)[C@H](CC(=O)O)NC(=O)[C@H](CC(C)C)NC(=O)[C@@H](NC(=O)[C@@H]1CCCN1C(C)=O)C(C)C)C(=O)N[C@@H](CC(C)C)C(=O)N[C@@H](CCCCN)C(N)=O [SEQ ID NO 44, PVLDEFREKLNES7HLEALKQS7HLK] (Ac-PVLDEFREKLNE[Ala(5-hexenyl)]LEALKQ[Ala(5-hexenyl)]LK-NH2)
[1]
  EC50: 600 nM

## PVLDEFREKLNEELEALKQR7HLK (Ac-PVLDEFREKLNEELEALKQ[dGly(6-heptenyl)]LK; not fully specified (C-terminus); printed as PVLDEFREKLNEELEALKQR7HLK) [SEQ ID NO 22]
  activity in the cholesterol efflux / in vitro RCT assay, in words: only slightly active
